This assay concerns Tetranychus cinnabarinus. Kind of assay: Activity test of Tetranychus cinnabarinus (spray on inoculated bean seedlings, mortality after 72 hours). In kind it is in vivo. The settings on record: for pest or weed control at 6.25 ppm: 6.25 ppm (6.25 mg/L); for pest or weed control at 6.25 ppm / pest or weed control at 25 ppm / pest or weed control at 100 ppm: whole plant sprayed, 72 hours, read-out: lethal rate against mites; for pest or weed control at 25 ppm: 25 ppm (25 mg/L); for pest or weed control at 100 ppm: 100 ppm (100 mg/L). Here is the method: Activity Test of Tetranychus cinnabarinus
The compound under test was dissolved in acetone and diluted to desired concentration with 0.1% Tween 80 solution with acetone content not exceeding 5%.
One true leaf was removed from the bean seedlings having two true leaves. Tanyanychus cinarinus was inoculated and the cardinal number thereof investigated. The whole plant was sprayed with a handheld sprayer, and each treatment was repeated for 3 times. After treatment, the bean seedlings were cultured in a constant temperature room. 72 hours later, the number of live mites was investigated and the mortality rate was calculated. The number of Tetranychus cinnabarinus was 100-200 per inoculation. Mortality=(number of inoculated mites−number of live mites after treatment)[…]×100%.

Setting [1] is: Concentration 3.12 ppm, acaricidal parallel test with bifenazate and cyflumetofen, read-out: Mortality %.

Molecules are shown by their SMILES. Read-outs that look alike come from different tables or passages of the source.

Regarding `COC(=O)c1ccccc1CNc1cc([S+]([O-])CC(F)(F)F)c(Cl)cc1F` (centres unmarked) [Compound 1203], the pest or weed control at 6.25 ppm was greater than 90%, the pest or weed control at 25 ppm was greater than 90% and the pest or weed control at 100 ppm is greater than 90%. Further, the mortality at 3.12 ppm under setting [1] turned out to be 98%.
As for `Cc1cc(F)c(NCc2ccccc2C#N)cc1SCC(F)(F)F` [Compound 33], the pest or weed control at 100 ppm was greater than 90%.
On to `COC(=O)c1cc(F)ccc1CNc1cc(SCC(F)(F)F)c(C)cc1F` [Compound 303, 5-Fluoro-2-((((2-Fluoro-4-methyl-5-(2,2,2-trifluoroethyl)thio)phenyl)amino)methyl) benzoate], for which the pest or weed control at 6.25 ppm was greater than 90%, the pest or weed control at 25 ppm was greater than 90% and the pest or weed control at 100 ppm is greater than 90%. Further, the mortality at 3.12 ppm under setting [1] amounted to 99%.
As for `COC(=O)c1ccccc1CNc1cc(SCC(F)(F)F)c(Cl)cc1F` [Compound 1202, 2-((((4-chloro-2-fluoro-5-((2,2,2-trifluoroethyl)thio)phenyl)amino)methyl) benzoate], the pest or weed control at 6.25 ppm is greater than 90%, the pest or weed control at 25 ppm was greater than 90% and the pest or weed control at 100 ppm was greater than 90%. Further, the mortality at 3.12 ppm under setting [1] is 97%.
With `COC(=O)c1cc(F)ccc1CNc1cc(SCC(F)(F)F)c(Cl)cc1F` [Compound 1165], the pest or weed control at 6.25 ppm was greater than 90%, the pest or weed control at 25 ppm is greater than 90% and the pest or weed control at 100 ppm was greater than 90%. Further, the mortality at 3.12 ppm under setting [1] came to 99%.
In the case of `COCCOC(=O)C(C#N)(C(=O)c1ccccc1C(F)(F)F)c1ccc(C(C)(C)C)cc1` (centres unmarked) [Cyflumetofen, cyflumetofen, reference compound], the mortality at 3.12 ppm was found to be 72%.
Regarding `Cc1cc(F)c(NCc2ccc(Cl)c(Cl)c2)cc1SCC(F)(F)F` [Compound 247], the pest or weed control at 100 ppm was greater than 90%.
For `COC(=O)c1ccccc1CNc1cc(SCC(F)(F)F)c(C)cc1F` [Compound 53], the pest or weed control at 6.25 ppm was greater than 90%, the pest or weed control at 25 ppm was greater than 90% and the pest or weed control at 100 ppm is greater than 90%. Besides, the mortality at 3.12 ppm under setting [1] is 99%.
For `COC(=O)c1cc(F)ccc1CNc1cc([S+]([O-])CC(F)(F)F)c(Cl)cc1F` (centres unmarked) [Compound 1166], the pest or weed control at 6.25 ppm was greater than 90%, the pest or weed control at 25 ppm is greater than 90% and the pest or weed control at 100 ppm was greater than 90%. For the same compound, the mortality at 3.12 ppm under setting [1] worked out at 98%.
Turning to `Cc1cc(F)c(NCc2ccc(Cl)c(F)c2)cc1SCC(F)(F)F` [Compound 249, N-(4-chloro-3-fluorobenzyl)-2-fluoro-4-methyl-5-((2,2,2-trifluoroethyl)thio) aniline], the pest or weed control at 100 ppm was greater than 90%.
Consider `COC(=O)c1ccccc1CNc1cc([S+]([O-])CC(F)(F)F)c(C)cc1F` (centres unmarked) [Compound 54], for which the pest or weed control at 6.25 ppm was greater than 90%, the pest or weed control at 25 ppm was greater than 90% and the pest or weed control at 100 ppm is greater than 90%. The mortality at 3.12 ppm under setting [1] came out at 100%.
Compound `COc1ccc(-c2ccccc2)cc1NNC(=O)OC(C)C` [Bifenazate, bifenazate, reference compound] yielded a mortality at 3.12 ppm of 85%.
As for `Cc1cc(F)c(NCc2cccc(F)c2)cc1SCC(F)(F)F` [Compound 229, 2-fluoro-N-(3-fluorobenzyl)-4-methyl-5-((2,2,2-trifluoroethyl)thio) aniline], the pest or weed control at 100 ppm is greater than 90%.
As to `COC(=O)c1cc(F)ccc1CNc1cc([S+]([O-])CC(F)(F)F)c(C)cc1F` (centres unmarked) [Compound 304], the pest or weed control at 6.25 ppm was greater than 90%, the pest or weed control at 25 ppm was greater than 90% and the pest or weed control at 100 ppm was greater than 90%. Further, under setting [1], the mortality at 3.12 ppm is 98%.

One may read the mortality as the percentage killed.
